From ChEMBL document CHEMBL3046589, “Synthesis and Fungicidal Activities of (-Methoxybenzyl) isoxazoles” (2000)

Key:
Type in all cases: functional
[1] = test system: Pseudoperonospora cubensis; experiment: Preventive fungicidal activity against Pseudoperonospora cubensis infected cucumber leaves at 500 ppm after by foliar application method
Botrytis cinerea = experiment: Preventive fungicidal activity against Botryotinia fuckeliana infected cucumber leaves at 500 ppm after by foliar application method
Podosphaera fuliginea [2] = experiment: Preventive fungicidal activity against Podosphaera fuliginea infected cucumber leaves at 500 ppm after by foliar application method
Podosphaera fuliginea [3] = experiment: Preventive fungicidal activity against Podosphaera fuliginea infected cucumber leaves at 31.3 ppm after by foliar application method
Podosphaera fuliginea [4] = experiment: Preventive fungicidal activity against Podosphaera fuliginea infected cucumber leaves at 125 ppm after by foliar application method
Myzus persicae [5] = experiment: Insecticidal activity against Myzus persicae (green peach aphid) nymphs fed with chinese cabbage leaf assessed as mortality at 15.6 ppm applied through spraying measured after 48 hr
Myzus persicae [6] = experiment: Insecticidal activity against Myzus persicae (green peach aphid) nymphs fed with Chinese cabbage leaf assessed as mortality at 62.5 ppm applied through spraying measured after 48 hr
Myzus persicae [7] = experiment: Insecticidal activity against Myzus persicae (green peach aphid) nymphs fed with Chinese cabbage leaf assessed as mortality at 250 ppm applied through spraying measured after 48 hr
[8] = test system: Pseudoperonospora cubensis; experiment: Preventive fungicidal activity against Pseudoperonospora cubensis infected cucumber leaves at 31.3 ppm after by foliar application method
Podosphaera fuliginea [9] = experiment: Preventive fungicidal activity against Podosphaera fuliginea infected cucumber leaves at 7.8 ppm after by foliar application method
[10] = test system: Pseudoperonospora cubensis; experiment: Curative fungicidal activity against Pseudoperonospora cubensis infected cucumber leaves at 7.8 ppm after by foliar application method
[11] = test system: Pseudoperonospora cubensis; experiment: Curative fungicidal activity against Pseudoperonospora cubensis infected cucumber leaves at 31.3 ppm after by foliar application method
[12] = test system: Pseudoperonospora cubensis; experiment: Preventive fungicidal activity against Pseudoperonospora cubensis infected cucumber leaves at 7.8 ppm after by foliar application method
Podosphaera fuliginea [13] = experiment: Curative fungicidal activity against Podosphaera fuliginea infected cucumber leaves at 31.3 ppm after by foliar application method
Podosphaera fuliginea [14] = experiment: Curative fungicidal activity against Podosphaera fuliginea infected cucumber leaves at 7.8 ppm after by foliar application method
[15] = test system: Pseudoperonospora cubensis; experiment: Preventive fungicidal activity against Pseudoperonospora cubensis infected cucumber leaves at 125 ppm after by foliar application method

COC(c1cc(C)no1)c1ccccc1Oc1ncc(C(F)(F)F)cc1Cl (stereo not drawn)
Activity [1]: 50%
Activity (Botrytis cinerea): 50%

COC(c1cc(C)no1)c1ccccc1/C=N/N=C(\C)c1ccccc1Br (stereo not drawn)
Activity [1]: 50%
Activity (Podosphaera fuliginea [2]): 90%

COC(c1cc(C)no1)c1ccccc1/C=N/N=C(\C)c1ccc(Cl)cc1Cl (stereo not drawn)
Activity [1]: 50%
Activity (Podosphaera fuliginea [3]): 90%

COC(C1=NOCC1)c1ccccc1COc1cc(C)ccc1C (stereo not drawn)
Activity [1]: 50%
Activity (Botrytis cinerea): 50%
Activity (Podosphaera fuliginea [4]): 90%

COC(c1cc(C)no1)c1ccccc1COc1ccccc1C (stereo not drawn)
Activity [1]: 50%
Activity (Botrytis cinerea): 50%
Activity (Podosphaera fuliginea [3]): 90%

COC(c1cc(C)no1)c1ccccc1/C=N/N=C(\C)c1ccc(C(F)(F)F)cc1 (stereo not drawn)
mortality at 15.6 ppm (Myzus persicae [5]): 0%
mortality at 62.5 ppm (Myzus persicae [6]): 1%
mortality at 250 ppm (Myzus persicae [7]): 2%
Activity [8]: 50%
Activity (Podosphaera fuliginea [9]): 90%

COC(c1cc(C)no1)c1ccccc1/C=N/N=C(\C)c1ccccc1Cl (stereo not drawn)
Activity [1]: 50%
Activity (Podosphaera fuliginea [2]): 90%

COC(c1cc(C)no1)c1ccccc1/C=N/N=C(\C)c1ccc(F)cc1 (stereo not drawn)
Activity [1]: 50%
Activity (Podosphaera fuliginea [4]): 90%

COC(c1cc(C)no1)c1ccccc1CO/N=C(\C)c1ccc(Cl)cc1 (stereo not drawn)
Activity [1]: 50%
Activity (Botrytis cinerea): 50%
Activity (Podosphaera fuliginea [3]): 90%

COC(c1cc(C)on1)c1ccccc1COc1cc(C)ccc1C (stereo not drawn)
Activity [1]: 50%
Activity (Botrytis cinerea): 50%
Activity (Podosphaera fuliginea [3]): 90%

COC(c1cc(C)no1)c1ccccc1/C=N/N=C(\C)c1ccc(OC(F)(F)F)cc1 (stereo not drawn)
Activity [10]: 100%
Activity [11]: 100%
Activity [8]: 60%
Activity (Podosphaera fuliginea [9]): 100%
Activity [12]: 50%
Activity (Podosphaera fuliginea [13]): 45%
Activity (Podosphaera fuliginea [14]): 0%
Activity (Podosphaera fuliginea [3]): 100%

CC(C)C(C(=O)OC(C#N)c1cccc(Oc2ccccc2)c1)c1ccc(OC(F)F)cc1 (stereo not drawn) [FLUCYTHRINATE]
mortality at 15.6 ppm (Myzus persicae [5]): 3%
mortality at 62.5 ppm (Myzus persicae [6]): 3%
mortality at 250 ppm (Myzus persicae [7]): 3%

COC(c1ccccc1COc1cc(C)ccc1C)c1c(C)noc1C (stereo not drawn)
Activity [1]: 50%
Activity (Botrytis cinerea): 50%
Activity (Podosphaera fuliginea [2]): 90%

COC(c1cc(C)no1)c1ccccc1/C=N/N=C(\C)c1cccc(Cl)c1 (stereo not drawn)
Activity [1]: 50%

COC(c1cc(C)no1)c1ccccc1/C=N/OC(C)c1ccc(Cl)cc1 (stereo not drawn)
Activity [1]: 50%
Activity (Podosphaera fuliginea [9]): 90%
Activity (Botrytis cinerea): 50%

COC(c1cc(C)no1)c1ccccc1Oc1cc(Oc2ccccc2C#N)ncn1 (stereo not drawn)
Activity [1]: 50%
Activity (Botrytis cinerea): 50%
Activity (Podosphaera fuliginea [2]): 90%

COc1ccc(/C(C)=N/N=C/c2ccccc2C(OC)c2cc(C)no2)cc1 (stereo not drawn)
Activity [15]: 50%
Activity (Podosphaera fuliginea [4]): 90%

COC(c1cc(C)no1)c1ccccc1/C=N/N=C(\C)c1ccc(Br)cc1 (stereo not drawn)
Activity [10]: 100%
Activity [11]: 100%
Activity [8]: 70%
Activity (Podosphaera fuliginea [9]): 100%
Activity [12]: 50%
Activity (Podosphaera fuliginea [13]): 70%
Activity (Podosphaera fuliginea [14]): 50%
Activity (Podosphaera fuliginea [3]): 100%

COC(c1cc(C)no1)c1ccccc1COc1ccc(C(F)(F)F)cn1 (stereo not drawn)
Activity [1]: 50%
Activity (Botrytis cinerea): 50%
Activity (Podosphaera fuliginea [4]): 90%

COC(c1cc(C)no1)c1ccccc1/C=C/c1ccc(Cl)cc1 (stereo not drawn)
Activity [1]: 50%
Activity (Botrytis cinerea): 50%
Activity (Podosphaera fuliginea [2]): 90%

COC(c1cc(C)no1)c1ccccc1/C=N/N=C(\C)c1ccc(C)cc1 (stereo not drawn)
Activity [1]: 50%
Activity (Podosphaera fuliginea [3]): 90%

COC(c1ccon1)c1ccccc1COc1cc(C)ccc1C (stereo not drawn)
Activity [1]: 50%
Activity (Botrytis cinerea): 50%
Activity (Podosphaera fuliginea [3]): 90%

COC(c1cc(C)no1)c1ccccc1/C=N/N=C(\C)c1ccccc1 (stereo not drawn)
Activity [1]: 50%
Activity (Podosphaera fuliginea [2]): 90%

COC(c1cc(C)no1)c1ccccc1Oc1ccccc1 (stereo not drawn)
Activity [1]: 50%
Activity (Botrytis cinerea): 50%

COC(c1ccccc1COc1cc(C)ccc1C)C1CC(C)=NO1 (stereo not drawn)
Activity [1]: 50%
Activity (Botrytis cinerea): 50%
Activity (Podosphaera fuliginea [2]): 90%

COC(c1cc(C)no1)c1ccccc1/C=N/N=C(\C)c1ccc(Cl)cc1 (stereo not drawn)
mortality at 15.6 ppm (Myzus persicae [5]): 0%
mortality at 62.5 ppm (Myzus persicae [6]): 1%
mortality at 250 ppm (Myzus persicae [7]): 2%
Activity [8]: 50%
Activity (Podosphaera fuliginea [9]): 90%
Activity (Botrytis cinerea): 50%

CNC(=O)/C(=N/OC)c1ccccc1Oc1ccccc1 [METOMINOSTROBIN]
Activity [10]: 70%
Activity [11]: 97%
Activity [8]: 60%
Activity (Podosphaera fuliginea [9]): 70%
Activity [12]: 40%
Activity (Podosphaera fuliginea [13]): 40%
Activity (Podosphaera fuliginea [14]): 0%
Activity (Podosphaera fuliginea [3]): 100%

COC(c1cc(C)no1)c1ccccc1COc1ncc(C(F)(F)F)cc1Cl (stereo not drawn)
Activity [1]: 50%
Activity (Botrytis cinerea): 50%
Activity (Podosphaera fuliginea [3]): 90%

COC(c1cc(C)no1)c1ccccc1/C=N/N=C(\C)c1ccc(Cl)c(Cl)c1 (stereo not drawn)
mortality at 15.6 ppm (Myzus persicae [5]): 0%
mortality at 62.5 ppm (Myzus persicae [6]): 3%
mortality at 250 ppm (Myzus persicae [7]): 3%
Activity [10]: 100%
Activity [11]: 100%
Activity [8]: 70%
Activity (Podosphaera fuliginea [9]): 100%
Activity [12]: 30%
Activity (Podosphaera fuliginea [13]): 70%
Activity (Podosphaera fuliginea [14]): 30%
Activity (Podosphaera fuliginea [3]): 100%

CO/N=C(\c1ccon1)c1ccccc1COc1cc(C)ccc1C
Activity [10]: 100%
Activity [11]: 100%
Activity [8]: 0%
Activity (Podosphaera fuliginea [9]): 100%
Activity [12]: 0%
Activity (Podosphaera fuliginea [13]): 0%
Activity (Podosphaera fuliginea [14]): 0%
Activity (Podosphaera fuliginea [3]): 100%

COC(c1cc(C)no1)c1ccccc1COc1cc(C)ccc1C (stereo not drawn)
Activity [1]: 50%
Activity (Podosphaera fuliginea [9]): 90%
Activity (Botrytis cinerea): 50%

COC(c1cc(C)no1)c1ccccc1CO/N=C(\SC)c1ccc(Cl)cc1 (stereo not drawn)
Activity [1]: 50%
Activity (Botrytis cinerea): 50%
Activity (Podosphaera fuliginea [4]): 90%
